Consider one compound from patent US12383534B2, “Methods for treating cancer” (REGENTS OF THE UNIVERSITY OF MINNESOTA, priority 2021, dated 2025).

One assay has as its system NCC-CDS-X1 spheres. Description: Spheroid assay. The class given is cell-based, human. The conditions noted are these: day 4 and 8. Here is the method: For spheroid formation assays, 2.5×10^4 NCC-CDS-X1 cells were seeded into 96-well plates (96-well Clear Flat Bottom Ultra-Low Attachment Microplate; Corning, Inc., Corning, NY, USA) in MEM/10% FBS media. Treatment with iP300w was started two days after the plating when the cells formed compact spheres.

In another assay the test system is NCC-CDS-X1 cells. Description: Immunofluorescence for Ki-67 in NCC-CDS-X1 cells. It is filed as cell-based, human. The conditions noted are these: NCC-CDS-X1, 24 hours, 0.3 μM. As to the method: (§1) For western blot analyses, cells were lysed with RIPA buffer supplemented with protease inhibitor cocktail (Complete, Roche), and proteins were separated on 10% SDS-PAGE gels, then transferred to PVDF membranes. Antibodies were diluted in 5% skim milk in TBST and incubated overnight at 4° C. or 1 hour at RT. An appropriate secondary HRP conjugated antibody was incubated for 1 hour at RT. Membranes were then washed with TBST, and signal was visualized using Pierce ECL western blotting substrate (Thermo Scientific). For immunofluorescence, cells cultured in 96 well plates were fixed in 4% PFA for 10 min., washed twice with PBS, permeabilized with 0.3% Triton X for 30 min, and blocked with 3% BSA for 1 hour at R/T. Primary antibodies were diluted in 3% BSA and incubated o/n at 4° C. An appropriate conjugated secondary antibody was applied for 60 min at RT. Nuclei were visualized using DAPI (1:5000, Sigma). […]

Assay [1] relates to NCC-CDS-X1 subcutaneous xenograft tumors. Nature of the assay: NCC-CDS-X1 xenograft tumor growth in mice. The class given is in vivo, mouse. The note with it: 1.4 mg/kg b.i.d. intraperitoneally from day 9, 12 days. As to the method:
Mice were maintained, and in vivo experiments were conducted at the University of Minnesota Research Animal Resources facility, under a protocol (1903-36866A) approved by IACUC. Immunodeficient NSG-MDX mice (n=8) were transplanted with 1×10^7 NCC-CDS-X1 cells resuspended in 100 uL of a mixture of medium and Matrigel (Corning). Visible tumor masses at the sites of injection were detected on day 9 after transplantation. All the injected mice developed tumors. At this point, the mice were randomized into two groups, control and iP300w treated, and initial measurement of the tumors was performed. iP300w was initially dissolved in DMSO at 10 mM and then diluted in 100 uL PBS. Each mouse received 1.4 mg/kg iP300w intraperitoneally twice daily or vehicle in the control group. Tumor size was recorded every 4 days and the volume was calculated using the formula (length×width^2)/2.
Finally, the effectiveness of iP300w to suppress CDS tumor growth in vivo was assessed. NCC-CDS-X1 cells were used to generate subcutaneous xenograft tumors in immunodeficient NSG mice (n=8). When tumors were palpable (day 9) iP300w injections (1.4 mg/kg b.i.d.) were initiated and the progression of tumor growth was monitored.

Assay [2] relates to CIC-DUX4 induced transcriptome in NCC-CDS-X1 cells. Description: RNA-seq transcriptional profile of NCC-CDS-X1 cells. It is filed as cell-based, human. The note with it: for number of genes changed by more than 10-fold / number of down-regulated genes (2-fold or greater) / number of up-regulated genes (2-fold or greater): 0.3 μM. As to the method:
RNA was extracted using an RNA extraction kit (Zymo) and cDNA was made using 0.5 μg total RNA with oligo-dT primer and Verso cDNA Synthesis Kit (Thermo Scientific) following the manufacturer's instructions. qPCRs were performed by using Premix Ex Taq (Probe qPCR, Takara) or SYBR-green. Gene expression levels were normalized to that of GAPDH and analyzed with 7500 System Software using the ACT method (Applied Biosystems). RNA-seq library preparation was done with 500 ng total RNA from NCC-CDS-X1 cells treated for 4 or 24 hours with iP300w (0.3 μM) using the Swift Rapid RNA Library Kit (SwiftBioscience). 36 base paired-end sequencing was performed on an Illumina NextSeq instrument at the University of Minnesota Genomics Center.
Paired-end Illumina sequencing reads were trimmed with TrimGalore (0.6.0) and transcript abundance was quantified using the human Gencode annotations (v34) using Salmon (v 1.2.1) with the GC-bias correction option. Counts were imported into R (v 4.0.2) using tximeta (v 1.6.3). Differentially expressed genes were identified with DESeq2 (v 1.28.1) and figures were made with the ComplexHeatmap (v 2.4.3), clusterProfiler (v 3.16.1) and ggplot2 (v 3.3.2) R packages. Sequencing reads and processed data have been deposited into GEO under the accession number GSE165729.
Next, global transcriptional profiles of NCC-CDS-X1 cells treated with iP300w were investigated. […] Among these differentially expressed genes, 170 and 244 were changed by more than 10-fold at 4 hour and 24 hours, respectively (FIG. 3A).

Assay [3] deals with global H3K18 and H3K27 acetylation. Description: Western blot for H3 acetylation markers in Kitra-SRS cells. The note with it: 18 hours. It is filed as cell-based, human. Here is the method:
as §1
(In general: In western blotting, separated proteins are transferred to a membrane and probed.)

In another assay the test system is p300 and CBP. The conditions noted are these: in vitro and in vivo; cited from earlier work.
The test system of another assay is DUX4. The note with it: cited from earlier work.

As for `CNC(=O)Cn1cc(-c2ccc3c(c2)[C@H](F)C[C@]32NC(=O)N(CC(=O)N(Cc3ccc(F)cc3)[C@@H](C)C(F)(F)F)C2=O)cn1` (single isomer, unassigned) [iP300w], the “effect on CDS cell sphere formation and growth” value in the assay on NCC-CDS-X1 spheres is “dose and time inhibitory effect”. In the assay on NCC-CDS-X1 cells, the Ki-67 positive staining entry was “almost complete absence of Ki-67 positive staining”. Moreover, in assay [1], the “treated mice with tumor growth halted” value is 5/8 and the “treated mice with tumor growth significantly diminished” value was 3/8. Moreover, the “number of genes changed by more than 10-fold” value in assay [2] (4 hour) came to 170 genes. In assay [2] (4 hours post-treatment), the “number of down-regulated genes (2-fold or greater)” value amounted to 1182 genes and the “number of up-regulated genes (2-fold or greater)” value was found to be 872 genes. Also, in assay [2] (24 hours), the “number of genes changed by more than 10-fold” value is listed as 244 genes and the “effect on p21 (CDKN1A) expression” value is reported as “upregulated in the 24 hours”. Also, in assay [2] (24 hours post-treatment), the “number of down-regulated genes (2-fold or greater)” value was 2042 genes and the “number of up-regulated genes (2-fold or greater)” value was found to be 1658 genes. For the same compound, in assay [2] (set of 165 CIC-DUX4 targets, 4 hours), the “effect on key transformation-regulatory genes ETV1, ETV4 and CCNE1” value is recorded as “significantly downregulated within 4 hours”. The “effect on CIC-DUX4 targets” value in assay [2] (set of 165 CIC-DUX4 targets, 24 hours) is listed as “vast majority of CIC-DUX4 targets to be downregulated”. Moreover, the “effect on global H3K18 and H3K27 acetylation” value in assay [3] is “reduces global H3K18 and H3K27 acetylation”. In addition, the “inhibition of acetylation by p300 and CBP” value in the assay on p300 and CBP is “inhibit acetylation by p300 and CBP both in vitro and in vivo”. For the same compound, in the assay with DUX4, the “effect on cell death caused by full length DUX4” value is given as “cell death was prevented” and the “effect on gene expression changes caused by DUX4” value is reported as “ability to reverse gene expression changes caused by DUX4”.
